In assay [1] the test system is THP-1 cells, IL-1β release. Kind of assay: IL-1β Release THP-1 Assay (Example B-3). Type of assay: cell-based. The settings on record: Homo sapiens; PMA-differentiated THP-1 cells, LPS then Nigericin, IL-1β by Elisa; read-out: Potency, THP-1 IL-1β, IC50 (nM), Example B-3. Here is the method:
Example B-3: IL-1β Release THP-1 Assay
THP-1 cells Culture RPMI1640 medium, 10% FBS, 1% PS, 55 uM β-Mer at 37° C. & 5% CO2 incubator.
IL-1β Release Detection • 1) Seed THP-1 in complete RPMI 1640 medium containing PMA into 96 well plate coated with poly-L-lysin incubate for 24 hours. • 2) Remove medium, wash the differentiated THP-1 cells with PBS, add FBS free RPMI 1640 medium. • 3) Add LPS and incubate for 3 hours at 37° C. & 5% CO2 incubator. • 4) Add compounds and incubate for 30 minutes at 37° C. & 5% CO2 incubator. • 5) Add Nigericin and incubate for 1 hour at 37° C. & 5% CO2 incubator. • 6) Collect supernatant to test IL-1β by Elisa.
• a) Assay robustness check with DMSO and Low control data:
[formula] • X: cpd concentration • Y: change % • Top and Bottom: Plateaus in same units as Y • logIC50: same log units as X • HillSlope: Slope factor or Hill slope

The target of another assay is T1, NLRP3 (Homo sapiens, UniProt Q96P20).
T1 construct: purchased ICE YM2306T-H06MHS
Nature of the assay: NLRP3 Enzymatic Activity ADP-Glo Assay (Example B-4). Type of assay: biochemical. The following applies: hydrolysis of ATP by NLRP3; NLRP3 15 nM, ATP 1 μM; read-out: NLRP3_ADP-Glo_IC50 (nM), Example B-4. How it is done:
Example B-4: NLRP3 Enzymatic Activity ADP-Glo Assay
NLRP3 activity test experiment, measuring the hydrolysis of NLRP3 on the substrate ATP using the ADP-Glo assay. First, after adding an inhibitor containing 0.5% DMSO with Echo, add 5 μL of NLRP3 (ICE, YM2306T-H06MHS) enzyme solution to each well, centrifuge at 1000 rpm for 1 min at room temperature and react for 10 min. Then add 5 μL of ATP (Promega, V915A) substrate solution to each well for 90 min at room temperature; NLRP3 and ATP were prepared in 50 mM HEPES, 10 mM MgCl2, 0.01% Brij-35, 1 mM EGTA, and 2 mM DTT buffers at final concentrations of 15 nM and 1 μM, respectively. Subsequently, 10 μL ADP-Glo reagent solution (Promega, V9102) was added into each assay well, centrifuged at 1000 rpm for 1 min, and then incubated at room temperature for 45 min. Finally, 20 μL ADP-Glo detection solution (Promega, V9102) is added to each well, centrifuged at 1000 rpm for 1 min and reacted for 45 min at room temperature. The luminescence signal values were read using a BMG instrument and the IC50 values were determined by fitting the data to an S-shaped dose-response curve using nonlinear regression.
On the technique in general: ADP-Glo turns the ADP formed in a reaction into a luminescent signal.

T1 sequence (Q96P20 whole entry): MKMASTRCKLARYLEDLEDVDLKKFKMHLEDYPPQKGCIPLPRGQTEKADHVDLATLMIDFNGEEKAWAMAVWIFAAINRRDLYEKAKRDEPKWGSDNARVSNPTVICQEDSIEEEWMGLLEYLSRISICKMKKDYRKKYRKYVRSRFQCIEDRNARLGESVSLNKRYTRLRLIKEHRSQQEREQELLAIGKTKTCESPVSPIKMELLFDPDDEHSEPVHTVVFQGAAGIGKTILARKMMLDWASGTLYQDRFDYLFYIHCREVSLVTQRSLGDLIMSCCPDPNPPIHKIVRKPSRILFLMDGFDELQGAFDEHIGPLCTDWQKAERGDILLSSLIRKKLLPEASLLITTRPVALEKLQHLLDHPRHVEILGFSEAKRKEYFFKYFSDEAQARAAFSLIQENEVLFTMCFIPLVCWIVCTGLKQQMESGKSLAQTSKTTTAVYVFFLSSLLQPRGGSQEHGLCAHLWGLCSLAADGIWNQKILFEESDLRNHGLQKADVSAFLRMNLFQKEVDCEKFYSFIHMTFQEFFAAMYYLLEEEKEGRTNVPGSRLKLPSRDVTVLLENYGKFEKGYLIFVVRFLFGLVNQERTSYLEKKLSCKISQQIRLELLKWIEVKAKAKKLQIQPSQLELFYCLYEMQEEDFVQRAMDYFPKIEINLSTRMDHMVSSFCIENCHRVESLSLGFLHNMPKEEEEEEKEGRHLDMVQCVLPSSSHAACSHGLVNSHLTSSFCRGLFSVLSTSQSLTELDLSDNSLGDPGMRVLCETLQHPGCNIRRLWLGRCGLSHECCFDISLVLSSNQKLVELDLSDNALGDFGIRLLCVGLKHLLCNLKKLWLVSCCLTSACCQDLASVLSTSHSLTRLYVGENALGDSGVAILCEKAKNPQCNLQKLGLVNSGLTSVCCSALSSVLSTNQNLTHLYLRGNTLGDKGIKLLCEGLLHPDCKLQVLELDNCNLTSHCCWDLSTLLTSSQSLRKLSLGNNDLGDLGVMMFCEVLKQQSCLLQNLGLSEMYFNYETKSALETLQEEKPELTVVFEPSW

In the case of `Cc1cc(C(F)(F)F)cc(O)c1C1=NN=C(N[C@@H]2C[C@H](O)CN(C)C2)SC1` (single isomer, unassigned) [Compound 16], the IC50 in assay [1] lay within 10 to 100 nM.
Consider `Cc1cc(C(F)(F)F)cc(O)c1C1=NN=C(N2CCC[C@@H]2[C@@H](C)O)SC1` (single isomer, unassigned) [Compound 33], for which, at NLRP3, the IC50 was over 1000 nM.
On to `Cc1cc(C(F)(F)F)cc(O)c1C1=NN=C(N2CCC[C@@H]2[C@H](C)O)SC1` (single isomer, unassigned) [Compound 34], for which the IC50 on NLRP3 is over 1000 nM.
For the compound `Cc1cc(C(F)(F)F)cc(O)c1C1=NN=C(N[C@@H]2CCCN(C)C2)SC1` [Compound 1], the IC50 at NLRP3 is 10 to 100 nM; in assay [1], under 10 nM.
With `Cc1cc(C(F)(F)F)cc(O)c1C1=NN=C(N[C@@H]2CCCNC2)SC1` [Compound 2], the IC50 in assay [1] was under 10 nM.
On the same count and under the same terms, under `CCN1CCC[C@@H](NC2=NN=C(c3c(C)cc(C(F)(F)F)cc3O)CS2)C1` [Compound 3] stands under 10 nM; under `CC1SC(N[C@@H]2CCCN(C)C2)=NN=C1c1ccc(C(F)(F)F)cc1O` (stereo partly drawn) [Compound 5], 100 to 1000 nM.
The same measure, in the same setting: under `Cc1cc(C(F)(F)F)cc(O)c1C1=NN=C(N[C@@H]2CCCN(CCO)C2)SC1` [Compound 6] stands under 10 nM; under `Cc1cc(C(F)(F)F)cc(O)c1C1=NN=C(N[C@@H]2CCC[C@H](O)C2)SC1` [Compound 7], 10 to 100 nM.
Turning to `Cc1cc(C(F)(F)F)cc(O)c1C1=NN=C(N[C@@H]2C[C@H](F)CN(C)C2)SC1` [Compound 9], the IC50 in assay [1] fell in the range of 10 to 100 nM.
Take `Cc1cc(C(F)(F)F)cc(O)c1C1=NN=C(N[C@@H]2CCN(C)C2)SC1` [Compound 11]: in assay [1], the IC50 was 10 to 100 nM.
Take `Cc1cc(C(F)(F)F)cc(O)c1C1=NN=C(N[C@@H]2CCCN(C3COC3)C2)SC1` [Compound 17]: the IC50 in assay [1] fell in the range of 10 to 100 nM.
Regarding `Cc1cc(C(F)(F)F)cc(O)c1C1=NN=C(N[C@H]2CN3CCC2CC3)SC1` [Compound 20], the IC50 in assay [1] was 10 to 100 nM.
On the same count and under the same terms, under `Cc1cc(OC(F)F)cc(O)c1C1=NN=C(N[C@@H]2CCCN(C)C2)SC1` [Compound 21] stands 10 to 100 nM.
For `Cc1cc(C(F)(F)F)cc(O)c1C1=NN=C(Nc2cc[nH]n2)SC1` [Compound 22], in assay [1], the IC50 lay in the range of 100 to 1000 nM.
As to `COc1cc(C)c(C2=NN=C(N[C@@H]3CCCN(C)C3)SC2)c(O)c1` [Compound 23], the IC50 is 10 to 100 nM at NLRP3 and under 10 nM in assay [1].
On to `Cc1cc(C(F)(F)F)cc(O)c1C1=NN=C(N[C@H]2C[C@@H](O)C2)SC1` [Compound 24], for which the IC50 in assay [1] fell in the range of 100 to 1000 nM.
Turning to `Cc1cc(OC(F)F)cc(O)c1C1=NN=C(N[C@H]2C[C@@](C)(O)C2)SC1` [Compound 25], the IC50 (on NLRP3; in assay [1]) was 10 to 100 nM in each case.
`Cc1cc(C(F)(F)F)cc(O)c1C1=NN=C(NC[C@@H](C)O)SC1` [Compound 26]: the IC50 in assay [1] was in the range of 100 to 1000 nM.
Same read-out and setting: under `Cc1cc(C(F)(F)F)cc(O)c1C1=NN=C(N[C@H]2C[C@](O)(C(F)(F)F)C2)SC1` [Compound 29] stands 10 to 100 nM.
`Cc1cc(Cl)cc(O)c1C1=NN=C(N[C@H]2C[C@@](C)(O)C2)SC1` [Compound 30]: the IC50 (at NLRP3; in assay [1]) was 10 to 100 nM throughout.
In the case of `CNC(=O)CNC1=NN=C(c2c(C)cc(C(F)(F)F)cc2O)CS1` [Compound 32], on NLRP3, the IC50 was over 1000 nM.
As to `Cc1cc(C(F)(F)F)cc(O)c1C1=NN=C(N2CCC3CCN(C)CC32)SC1` (stereo not drawn) [Compound 35], the IC50 (on NLRP3; in assay [1]) was 10 to 100 nM in each case.
With `Cc1cc(C(F)(F)F)cc(O)c1C1=NN=C(N[C@@H]2CCCN(C)C2)N(C)C1` [Compound 36], the IC50 (at NLRP3; in assay [1]) was 100 to 1000 nM in each case.
As to `Cc1cc(C#N)cc(O)c1C1=NN=C(N[C@@H]2CCCN(C)C2)SC1` [Compound 37], the IC50 (at NLRP3; in assay [1]) was 10 to 100 nM each time.
`Cc1cc(C#N)cc(O)c1C1=NN=C(N2CCC3CCN(C)CC32)SC1` (stereo not drawn) [Compound 39]: the IC50 at NLRP3 was 100 to 1000 nM.
In the case of `Cc1cc2c(c(O)c1C1=NN=C(N[C@@H]3CCCN(CCO)C3)SC1)CCO2` [Compound 40], the IC50 (at NLRP3; in assay [1]) was 10 to 100 nM throughout.
Take `C[C@]1(O)C[C@@H](NC2=NN=C(c3c(O)cc(C(F)(F)F)cc3F)CS2)C1` [Compound 41]: the IC50 on NLRP3 fell in the range of 100 to 1000 nM.
On to `Cc1cc(C(F)(F)F)cc(OC(F)F)c1C1=NN=C(N[C@H]2C[C@@](C)(O)C2)SC1` [Compound 42], for which the IC50 at NLRP3 is over 1000 nM.
For the compound `Cc1cc(C(F)(F)F)cc(O)c1C1=NN=C(NCCC(N)=O)SC1` [Compound 43], the IC50 at NLRP3 was over 1000 nM.
Take `C[C@]1(O)C[C@@H](NC2=NN=C(c3c(O)cc(C(F)(F)F)cc3Cl)CS2)C1` [Compound 45]: the IC50 (at NLRP3; in assay [1]) was 10 to 100 nM throughout.
With `CCN1CCC[C@@H](NC2=NN=C(c3c(C)cc4sccc4c3O)CS2)C1` [Compound 46], the IC50 (at NLRP3; in assay [1]) was under 10 nM in each case.
Regarding `Cc1cc2sccc2c(O)c1C1=NN=C(N[C@@H]2CCCN(CCO)C2)SC1` [Compound 47], the IC50 (on NLRP3; in assay [1]) was under 10 nM each time.
With `Cc1cc(C(F)(F)F)c(F)c(O)c1C1=NN=C(N[C@H]2C[C@@](C)(O)C2)SC1` [Compound 48], the IC50 on NLRP3 fell in the range of 10 to 100 nM; in assay [1], 100 to 1000 nM.
For the compound `Cc1cc2c(cc1C1=NN=C(N[C@@H]3CCCN(C)C3)SC1)CCO2` [Compound 49], the IC50 at NLRP3 was over 1000 nM.
For the compound `Cc1cc2c(c(O)c1C1=NN=C(N[C@H]3C[C@@](C)(O)C3)SC1)CCC2` [Compound 50], the IC50 (at NLRP3; in assay [1]) was 10 to 100 nM each time.
Consider `Cc1cc(C(F)(F)F)cc(O)c1C1=NN=C(N[C@@H]2CCCN(C)C2)OC1` [Compound 52], for which the IC50 on NLRP3 was over 1000 nM.
Regarding `CCN1CCC[C@@H](NC2=NN=C(c3c(C)cc4c(c3O)CCO4)CS2)C1` [Compound 54], the IC50 on NLRP3 was under 10 nM.
Take `Cc1cc2c(c(O)c1C1=NN=C(N(C)[C@@H]3CCCN(C)C3)SC1)CCO2` [Compound 55]: the IC50 on NLRP3 fell in the range of 100 to 1000 nM.
For the compound `CC#Cc1cc(C)c(C2=NN=C(N[C@@H]3CCCN(C)C3)SC2)c(O)c1` [Compound 56], the IC50 at NLRP3 fell in the range of 100 to 1000 nM.
Still for that read-out and setting: under `Cc1c(F)c2c(c(O)c1C1=NN=C(N[C@H]3C[C@@](C)(O)C3)SC1)CCO2` [Compound 61] stands 10 to 100 nM.
In the case of `Cc1cc2c(c(O)c1C1=NN=C(N[C@H]3C[C@@](C)(O)C3)SC1)COC2` [Compound 62], on NLRP3, the IC50 lay in the range of 100 to 1000 nM.
With `Cc1cc2c(c(O)c1C1=NN=C(NC34CCC(O)(CC3)C4)SC1)CCO2` [Compound 63], at NLRP3, the IC50 fell in the range of 100 to 1000 nM.
As for `Cc1cc2c(c(O)c1C1=NN=C(N[C@H]3C[C@@](C)(O)C3)SC1)OCC2` [Compound 64], the IC50 on NLRP3 is 10 to 100 nM.
Consider `Cc1cc2c(c(O)c1C1=NN=C(N[C@H]3C[C@](C)(O)C3)SC1)CCO2` [Compound 65], for which the IC50 on NLRP3 fell in the range of 100 to 1000 nM.
Regarding `Cc1cc2c(c(O)c1C1=NN=C(N[C@H]3C[C@](C)(N)C3)SC1)CC2` [Compound 69], on NLRP3, the IC50 lay in the range of 100 to 1000 nM.
Turning to `Cc1cc2c(c(O)c1C1=NN=C(N[C@]34CC[C@](O)(C3)C4)SC1)CCO2` [Compound 70], the IC50 on NLRP3 was 100 to 1000 nM.
For the compound `[2H]C([2H])([2H])c1cc2c(c(O)c1C1=NN=C(N[C@H]3C[C@@](C)(O)C3)SC1)CCO2` [Compound 71], the IC50 on NLRP3 lay within 10 to 100 nM.
The same measure, in the same setting: then `Cc1cc2occc2c(O)c1C1=NN=C(N[C@H]2C[C@@](C)(O)C2)SC1` [Compound 72], with under 10 nM.
Regarding `Cc1cc(Cl)cc(O)c1C1=NN=C(N[C@H]2C[C@](C)(N)C2)CS1` [Compound 207], on NLRP3, the IC50 fell in the range of 100 to 1000 nM.

Values taken from patent publication US20260184704A1, “NLRP3 INFLAMMASOME INHIBITORS AND USES THEREOF” (Insilico Medicine IP Limited, priority 2023, published 2026).
